Measurements as given in patent publication US20240122930A1, “INTEGRIN INHIBITORS AND USES THEREOF IN COMBINATION WITH OTHER AGENTS” (Pliant Therapeutics, Inc., priority 2022, published 2024).
Read-outs that look alike come from different tables or passages of the source.

Test system: participants with idiopathic pulmonary fibrosis (IPF)
[1] = 40 mg (n = 22), 12 weeks, listed as Cmpd 5
[2] = 80 mg (n = 23), 12 weeks, listed as Cmpd 5
[3] = 160 mg (n = 22), 12 weeks, listed as Cmpd 5
[4] = 320 mg (n = 22), treatment up to 40 weeks

Source text: The groups were stratified for the use of nintedanib or pirfenidone. The groups were screened 28 days before the Day 1 of the study. At Day 1, baseline values were collected. During week 12, the subjects received the last dose, and the study was ended at week 14. Primary and secondary endpoints of the study included safety, tolerability, and PK. Exploratory endpoints included change in FVC over 12 weeks; High Resolution CT-based Quantitative Lung Fibrosis (QLF) imaging; patient-reported outcome (PRO): VAS-cough severity; and effect on selected biomarkers.
The groups were stratified for the use of nintedanib or pirfenidone. The screening was done 28 days before Day 1 and the baseline was measured on Day 1. The last dose was on Week 12, and the end of study was on Week 14. The primary and secondary endpoints include safety, tolerability, and PK. Exploratory Endpoints include change in Forced Vital Capacity (FVC) over 12 weeks, High Resolution CT-based Quantitative Lung Fibrosis (QLF) imaging, and effect on selected biomarkers.
The groups were stratified for the use of nintedanib or pirfenidone. The groups were screened 28 days before the Day 1 of the study. At Day 1, baseline values were collected. The study was continued up to Week 48. The treatment duration per protocol is at least 24 weeks and at most 48 weeks. For the study, the primary and secondary endpoints evaluated in the trial were safety, tolerability, and pharmacokinetics. The exploratory endpoints evaluated included the change in FVC over 12 and 24 weeks; high Resolution CT-based Quantitative Lung Fibrosis (QLF) imaging; patient-reported cough severity; and effect on selected biomarkers.

**Q.** What does the source list for `COCCN(CCCCc1ccc2c(n1)NCCC2)CC[C@H](Nc1ncnc2ccccc12)C(=O)O` [Compound 5, (S)-4-((2-methoxyethyl) (4-(5,6,7,8-tetrahydro-1,8-naphthyridin-2-yl)butyl)amino)-2-(quinazolin-4-ylamino) butanoic acid]?
**A.** Any AEs, % of participants (40 mg (n = 22), 12 weeks): (72.7) %; Any AEs, participants reporting (40 mg (n = 22), 12 weeks): 16 n; Serious TEAE (40 mg (n = 22), 12 weeks): 1 n; Serious TEAE related to study drug (40 mg (n = 22), 12 weeks): 0 n; Serious TEAE, % of participants (40 mg (n = 22), 12 weeks): (4.5) %; TEAE Diarrhea (any causality), % of participants (40 mg (n = 22), 12 weeks): (9.1) %; TEAE Diarrhea (any causality), participants reporting (40 mg (n = 22), 12 weeks): 2 n; TEAE Diarrhea related to study drug, % of participants (40 mg (n = 22), 12 weeks): (4.5) %; TEAE Diarrhea related to study drug, participants reporting (40 mg (n = 22), 12 weeks): 1 n; TEAE Leading to Death (40 mg (n = 22), 12 weeks): 0 n; TEAE Leading to Early Termination from Study (40 mg (n = 22), 12 weeks): 0 n; TEAE Leading to Interruption of Study Drug (40 mg (n = 22), 12 weeks): 0 n; TEAE Leading to Withdrawal of Study Drug (40 mg (n = 22), 12 weeks): 0 n; TEAE of CTCAE Grade 3 or Higher (40 mg (n = 22), 12 weeks): 2 n; TEAE of CTCAE Grade 3 or Higher related to study drug (40 mg (n = 22), 12 weeks): 0 n; TEAE of CTCAE Grade 3 or Higher, % of participants (40 mg (n = 22), 12 weeks): (9.1) %; TEAE related to study drug (40 mg (n = 22), 12 weeks): 4 n; TEAE related to study drug, % of participants (40 mg (n = 22), 12 weeks): (18.2) %; TEAE, % of participants (40 mg (n = 22), 12 weeks): (72.7) %; TEAE, participants reporting (40 mg (n = 22), 12 weeks): 16 n; Any AEs, % of participants [1]: 72.7%; Serious TEAE, % of participants [1]: 4.5%; TEAE Diarrhea (any causality), % of participants [1]: 9.1%; TEAE Diarrhea related to study drug, % of participants [1]: 4.5%; TEAE of CTCAE Grade 3 or Higher, % of participants [1]: 9.1%; TEAE related to study drug, % of participants [1]: 18.2%; TEAE, % of participants [1]: 72.7%; Any AEs, % of participants (80 mg (n = 23), 12 weeks): (65.2) %; Any AEs, participants reporting (80 mg (n = 23), 12 weeks): 15 n; Serious TEAE (80 mg (n = 23), 12 weeks): 0 n; Serious TEAE related to study drug (80 mg (n = 23), 12 weeks): 0 n; TEAE Diarrhea (any causality), % of participants (80 mg (n = 23), 12 weeks): (21.7) %; TEAE Diarrhea (any causality), participants reporting (80 mg (n = 23), 12 weeks): 5 n; TEAE Diarrhea related to study drug, % of participants (80 mg (n = 23), 12 weeks): (13.0) %; TEAE Diarrhea related to study drug, participants reporting (80 mg (n = 23), 12 weeks): 3 n; TEAE Leading to Death (80 mg (n = 23), 12 weeks): 0 n; TEAE Leading to Early Termination from Study (80 mg (n = 23), 12 weeks): 0 n; TEAE Leading to Interruption of Study Drug (80 mg (n = 23), 12 weeks): 0 n; TEAE Leading to Withdrawal of Study Drug (80 mg (n = 23), 12 weeks): 0 n; TEAE of CTCAE Grade 3 or Higher (80 mg (n = 23), 12 weeks): 0 n; TEAE of CTCAE Grade 3 or Higher related to study drug (80 mg (n = 23), 12 weeks): 0 n; TEAE related to study drug (80 mg (n = 23), 12 weeks): 7 n; TEAE related to study drug, % of participants (80 mg (n = 23), 12 weeks): (30.4) %; TEAE, % of participants (80 mg (n = 23), 12 weeks): (65.2) %; TEAE, participants reporting (80 mg (n = 23), 12 weeks): 15 n; Any AEs, % of participants [2]: 65.2%; TEAE Diarrhea (any causality), % of participants [2]: 21.7%; TEAE Diarrhea related to study drug, % of participants [2]: 13.0%; TEAE related to study drug, % of participants [2]: 30.4%; TEAE, % of participants [2]: 65.2%; Any AEs, % of participants (160 mg (n = 22), 12 weeks): (68.1) %; Any AEs, participants reporting (160 mg (n = 22), 12 weeks): 15 n; Serious TEAE (160 mg (n = 22), 12 weeks): 2 n; Serious TEAE related to study drug (160 mg (n = 22), 12 weeks): 0 n; Serious TEAE, % of participants (160 mg (n = 22), 12 weeks): (9.1) %; TEAE Diarrhea (any causality), % of participants (160 mg (n = 22), 12 weeks): (22.7) %; TEAE Diarrhea (any causality), participants reporting (160 mg (n = 22), 12 weeks): 5 n; TEAE Diarrhea related to study drug, % of participants (160 mg (n = 22), 12 weeks): (18.2) %; TEAE Diarrhea related to study drug, participants reporting (160 mg (n = 22), 12 weeks): 4 n; TEAE Leading to Death (160 mg (n = 22), 12 weeks): 0 n; TEAE Leading to Early Termination from Study (160 mg (n = 22), 12 weeks): 0 n; TEAE Leading to Interruption of Study Drug (160 mg (n = 22), 12 weeks): 1 n; TEAE Leading to Interruption of Study Drug, % of participants (160 mg (n = 22), 12 weeks): (4.5) %; TEAE Leading to Withdrawal of Study Drug (160 mg (n = 22), 12 weeks): 0 n; TEAE of CTCAE Grade 3 or Higher (160 mg (n = 22), 12 weeks): 2 n; TEAE of CTCAE Grade 3 or Higher related to study drug (160 mg (n = 22), 12 weeks): 1 n; TEAE of CTCAE Grade 3 or Higher related to study drug, % of participants (160 mg (n = 22), 12 weeks): (4.5) %; TEAE of CTCAE Grade 3 or Higher, % of participants (160 mg (n = 22), 12 weeks): (9.1) %; TEAE related to study drug (160 mg (n = 22), 12 weeks): 4 n; TEAE related to study drug, % of participants (160 mg (n = 22), 12 weeks): (18.2) %; TEAE, % of participants (160 mg (n = 22), 12 weeks): (63.6) %; TEAE, participants reporting (160 mg (n = 22), 12 weeks): 14 n; Any AEs, % of participants [3]: 68.2%; Serious TEAE, % of participants [3]: 9.1%; TEAE Diarrhea (any causality), % of participants [3]: 22.7%; TEAE Diarrhea related to study drug, % of participants [3]: 18.2%; TEAE Leading to Interruption of Study Drug, % of participants [3]: 4.5%; TEAE of CTCAE Grade 3 or Higher related to study drug, % of participants [3]: 4.5%; TEAE of CTCAE Grade 3 or Higher, % of participants [3]: 9.1%; TEAE related to study drug, % of participants [3]: 18.2%; TEAE, % of participants [3]: 63.6%; Any AEs, % of participants (320 mg (n = 21), 12 weeks): 85.7%; Any AEs, participants reporting (320 mg (n = 21), 12 weeks): 18 n; Serious TEAE (320 mg (n = 21), 12 weeks): 1 n; Serious TEAE related to study drug (320 mg (n = 21), 12 weeks): 0 n; Serious TEAE, % of participants (320 mg (n = 21), 12 weeks): 4.8%; TEAE Diarrhea (any causality), % of participants (320 mg (n = 21), 12 weeks): 14.3%; TEAE Diarrhea (any causality), participants reporting (320 mg (n = 21), 12 weeks): 3 n; TEAE Diarrhea related to study drug, % of participants (320 mg (n = 21), 12 weeks): 9.5%; TEAE Diarrhea related to study drug, participants reporting (320 mg (n = 21), 12 weeks): 2 n; TEAE Leading to Death (320 mg (n = 21), 12 weeks): 1 n; TEAE Leading to Death, % of participants (320 mg (n = 21), 12 weeks): 4.8%; TEAE Leading to Early Termination from Study (320 mg (n = 21), 12 weeks): 3 n; TEAE Leading to Early Termination from Study, % of participants (320 mg (n = 21), 12 weeks): 14.3%; TEAE Leading to Interruption of Study Drug (320 mg (n = 21), 12 weeks): 1 n; TEAE Leading to Interruption of Study Drug, % of participants (320 mg (n = 21), 12 weeks): 4.8%; TEAE Leading to Withdrawal of Study Drug (320 mg (n = 21), 12 weeks): 3 n; TEAE Leading to Withdrawal of Study Drug, % of participants (320 mg (n = 21), 12 weeks): 14.3%; TEAE of CTCAE Grade 3 or Higher (320 mg (n = 21), 12 weeks): 2 n; TEAE of CTCAE Grade 3 or Higher related to study drug (320 mg (n = 21), 12 weeks): 0 n; TEAE of CTCAE Grade 3 or Higher, % of participants (320 mg (n = 21), 12 weeks): 9.5%; TEAE related to study drug (320 mg (n = 21), 12 weeks): 4 n; TEAE related to study drug, % of participants (320 mg (n = 21), 12 weeks): 19.0%; TEAE, % of participants (320 mg (n = 21), 12 weeks): 81.0%; TEAE, participants reporting (320 mg (n = 21), 12 weeks): 17 n; Serious TEAE [4]: 2 n; Serious TEAE related to study drug [4]: 0 n; Serious TEAE, % of participants [4]: (9.1) %; TEAE Cough related to study drug [4]: 0 n; TEAE Cough, % of participants [4]: (13.6) %; TEAE Cough, participants reporting [4]: 3 n; TEAE Diarrhea related to study drug [4]: 4 n; TEAE Diarrhea related to study drug, % of participants [4]: (18.2) %; TEAE Diarrhea, % of participants [4]: (31.8) %; TEAE Diarrhea, participants reporting [4]: 7 n; TEAE Dyspnoea related to study drug [4]: 0 n; TEAE Dyspnoea, % of participants [4]: (22.7) %
